These results are taken from patent US20060160869A1, “Ubiquitin ligase inhibitors” (Rigel Pharmaceuticals, Inc., priority 2005, published 2006).

In assay [1] the test system is DLD-1 cells. Put plainly: PAD anti-proliferation assay, DLD-1. Type of assay: cell-based. As to conditions: Homo sapiens, 48 hours.
Assay [2] concerns the target MDM2 (Homo sapiens, UniProt Q00987). In words: Plate-based E3 ligase assay, MDM2 autoubiquitination (MDM2-FLAG). It counts as biochemical. The protocol:
(§1) E3 (His-APC11/APC2—“APC”) auto-ubiquitination was measured as described in U.S. patent application Ser. No. 09/826,312 (Publication No. US-2002-0042083-A1), which is incorporated herein in its entirety. Details of the protocol are described below. Activity in the presence of the compound was determined relative to a parallel control in which only DMSO was added. Values of the IC50 were typically determined using 6 or 8 different concentrations of the compound, although as few as 2 concentrations may be used to approximate the IC50 value.
(§2) Nickel-coated 96-well plates (Pierce 15242) were blocked for 1 hour with 100 μl of blocking buffer at room temperature. The plates were washed 4 times with 225 μl of 1×PBS and 80 μl of the reaction buffer were added that contained 100 ng/well of Flag-ubiquitin. To this, 10 μl of the test compound diluted in DMSO were added. After the test compound was added, 10 μl of E1 (human), E2 (Ubch5c), and APC in Protein Buffer was added to obtain a final concentration of 5 ng/well of E1, 20 ng/well: of E2 and 100 ng/well of APC. The plate were shaken for 10 minutes and incubated at room temperature for 1 hour. After incubation, the plates were washed 4 times with 225 μl of 1×PBS and 100 μl/well of Antibody Mix were added to each well. The plates were incubate at room temperature for another hour after which they were washed 4 times with 225 μl of 1×PBS and 100 μl/well of Lumino substrate were added to each well. The luminescence was measured by using a BMG luminescence microplate reader.
In similar manner, autoubiquitination of the E3 MDM2 was determined (MDM2-FLAG). Further instruction in such assays can be found in U.S. patent application Ser. No. 10/108,767 (Publication No. US-2003-0104474 A1), which is incorporated herein in its entirety.
hMDM2 Plate/Gel is Mouse double minute 2, human homolog. This protein belongs to the E3 RING finger ligase group.

Assay [3] deals with E3 (His-APC11/APC2, "APC") (Homo sapiens, UniProt Q9NYG5+Q9UJX6). Put plainly: Plate-based E3 ligase assay (APC FLAG), auto-ubiquitination. Type of assay: biochemical. The protocol: as §1, §2
APC Plate/gel is Anaphase Promoting Complex. This protein also belongs to E3 RING finger ligase group.

Assay [4] deals with HCT116 cells. Put plainly: PAD anti-proliferation assay, HCT. The settings on record: Homo sapiens, HCT-116, 48 hours. It counts as cell-based. On the procedure:
A549 (ATCC# CCL 185), HeLa (ATCC# CCL 2), HCT116 (ATCC# CCL-247), and H 1299 (ATCC# CRL-5803) cells were maintained in T175 flasks following the ATCC recommended media and handling procedures. Flasks reaching approximately 70% confluency were trypsinized and resuspended in RPMI media (Cell Gro catalog number 10 040 CM) modified to contain 5% FBS, 100 ug/mlPen/Strep (Cell Gro catalog number 30 002 CL), and 0.3 mg/ml L Glutamine (Cell Gro catalog number 25 003 CL). A 20,000 cells/ml solution was made for plating. Cells were plated in black Packard 96 well plates by placing 100 μl per well (2,000 cells per well).
Compounds and additional media were added 24′ hours after cell plating. A compound master plate was created with concentrations 500 times greater than the final concentration added to the cells. All compound testing was done in duplicate using 3 fold dilutions starting with 10 mM. All outside wells (and 4 internal wells) were DMSO controls. Taxol and at least one additional control were run on all plates. Three microliters of the compound master plate were added to deep well blocks containing 750 μl of RPMI media. One hundred microliters were transferred from the compound/media deep well blocks to the plated cells resulting in a 500 fold dilution of the compounds. Cells were grown at 37° C., 5% CO2 for 48 hours.
Cells to be analyzed by photography were fixed and stained. One hundred microliters of media were removed and 100 μl of 2% paraformaldehyde was added to each well. Plates were left on the benchtop for 45 minutes. A staining solution containing 1.55 μl of 1 mg/ml DAPI added to 18.75 ml PBS was warmed for 15 minutes at 37° C. The cells were aspirated prior to washing with 100 μl of PBS. Seventy microliters of PBS were aspirated and 170 μl of the DAPI solution were added to each well of fixed cells. Plates were left at room temperature for one hour then aspirated and washed twice with 100 μl of PBS. The stained cells were left at 4° C. for a minimum of 16 hours before photographic analysis with Array Scan II (Cellomics). Analysis of the photographic images to determine numbers of live cells (proliferation), apoptotic cells and dead cells, were according to the methods described in U.S. Provisional Patent Application Ser. No. 60/406,714, which incorporated herein in its entirety.

Setting [5] is: Table 3, read-out: MDM2 Plate IC50.
Where [6] appears, read: Table 3, read-out: APC Plate IC50.

What is called IC50 is the concentration that gives 50% inhibition.

Molecules are shown by their SMILES. Like-named read-outs stand apart in the source and are kept apart here.

Chain of MDM2 (Q00987 whole entry): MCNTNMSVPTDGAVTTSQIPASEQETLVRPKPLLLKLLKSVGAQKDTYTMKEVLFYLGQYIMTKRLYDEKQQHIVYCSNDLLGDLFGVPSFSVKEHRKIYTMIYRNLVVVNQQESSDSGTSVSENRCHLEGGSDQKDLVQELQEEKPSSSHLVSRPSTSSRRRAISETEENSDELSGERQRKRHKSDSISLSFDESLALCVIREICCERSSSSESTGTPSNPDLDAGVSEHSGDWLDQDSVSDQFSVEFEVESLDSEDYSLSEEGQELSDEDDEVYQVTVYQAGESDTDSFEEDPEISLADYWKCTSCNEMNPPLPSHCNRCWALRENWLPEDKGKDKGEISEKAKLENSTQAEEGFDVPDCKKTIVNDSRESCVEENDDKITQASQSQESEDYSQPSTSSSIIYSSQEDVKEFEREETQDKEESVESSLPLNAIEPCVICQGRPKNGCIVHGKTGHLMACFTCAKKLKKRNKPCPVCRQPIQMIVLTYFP
Chain of E3 (His-APC11/APC2, "APC") (Q9NYG5 whole entry): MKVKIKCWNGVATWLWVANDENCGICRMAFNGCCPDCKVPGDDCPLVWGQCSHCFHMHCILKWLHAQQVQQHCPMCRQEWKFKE
Chain of E3 (His-APC11/APC2, "APC") (Q9UJX6 whole entry): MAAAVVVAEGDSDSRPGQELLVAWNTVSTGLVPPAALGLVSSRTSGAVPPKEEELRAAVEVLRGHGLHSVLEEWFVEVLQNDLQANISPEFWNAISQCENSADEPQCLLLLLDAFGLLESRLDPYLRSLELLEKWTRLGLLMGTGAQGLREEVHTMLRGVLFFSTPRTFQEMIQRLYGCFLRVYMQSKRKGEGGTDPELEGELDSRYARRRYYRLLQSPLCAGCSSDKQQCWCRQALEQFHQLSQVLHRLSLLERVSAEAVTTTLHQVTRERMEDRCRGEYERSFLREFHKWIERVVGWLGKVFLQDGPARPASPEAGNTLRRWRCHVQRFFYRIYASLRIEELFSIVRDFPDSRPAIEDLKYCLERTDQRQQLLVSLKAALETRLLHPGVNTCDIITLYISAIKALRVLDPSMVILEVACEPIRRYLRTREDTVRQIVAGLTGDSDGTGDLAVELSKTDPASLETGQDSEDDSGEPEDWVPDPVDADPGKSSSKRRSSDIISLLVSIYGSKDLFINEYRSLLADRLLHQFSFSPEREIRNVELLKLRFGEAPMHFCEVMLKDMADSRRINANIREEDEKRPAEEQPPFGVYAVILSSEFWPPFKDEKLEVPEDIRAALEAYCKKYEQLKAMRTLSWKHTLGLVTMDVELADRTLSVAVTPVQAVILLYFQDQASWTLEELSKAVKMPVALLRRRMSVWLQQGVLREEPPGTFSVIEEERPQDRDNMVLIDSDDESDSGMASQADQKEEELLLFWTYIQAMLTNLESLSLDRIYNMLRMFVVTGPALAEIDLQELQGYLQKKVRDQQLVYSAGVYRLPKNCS

Consider `O=C(c1ccc(CN(Cc2cccc(OC(F)(F)F)c2)c2nc(-c3ccccc3)cs2)cc1)N1CCNCC1` [compound 275], for which the 50% inhibitory concentration (IC50) in assay [1] lay in the range of 1 to 20 µM; in assay [2] (Table 2, read-out: MDM2 IC50) it was 1 to 20 µM; in assay [2] (setting [5]), 1 to 20 µM; in assay [3] (Table 2, read-out: APC IC50), 1 to 20 µM; in assay [3] (setting [6]) it was 1 to 20 µM; in assay [4], 1 to 20 µM.
On to `O=C(c1ccc(CN(Cc2cccc(OC(F)(F)F)c2)c2nc(-c3ccc4ccccc4c3)cs2)cc1)N1CCNCC1` [compound 282, 4-(2-naphthyl)-N-[4-(piperazin-1-ylcarbonyl)benzyl]-N-[3-(trifluoromethoxy)benzyl]-1,3-thiazol-2-amine], for which the IC50 lay within 1 to 20 µM in assay [1]; 1 to 20 µM in assay [2] (Table 2, read-out: MDM2 IC50); 1 to 20 µM in assay [2] (setting [5]); 1 to 20 µM in assay [3] (Table 2, read-out: APC IC50); 1 to 20 µM in assay [3] (setting [6]); 1 to 20 µM in assay [4].
`COc1cccc(-c2csc(N(Cc3ccc(C(=O)N4CCNCC4)cc3)Cc3cccc(OC(F)(F)F)c3)n2)c1` [compound 351]: the 50% inhibitory concentration (IC50) was in the range of 1 to 20 µM in assay [2] (Table 2, read-out: MDM2 IC50); 1 to 20 µM in assay [2] (setting [5]); 1 to 20 µM in assay [3] (Table 2, read-out: APC IC50); 1 to 20 µM in assay [3] (setting [6]); 1 to 20 µM in assay [4].
Regarding `COc1cccc(-c2csc(N(CCOc3ccccc3)Cc3ccc(C(=O)N4CCNCC4)cc3)n2)c1` [compound 352], the IC50 in assay [2] (Table 2, read-out: MDM2 IC50) was 1 to 20 µM; in assay [2] (setting [5]) it was 1 to 20 µM; in assay [3] (Table 2, read-out: APC IC50), 1 to 20 µM; in assay [3] (setting [6]) it was no less than 20 µM.
Regarding `COc1cccc(CN(Cc2ccc(C(=O)N3CCNCC3)cc2)c2nc(-c3ccc(Br)cc3)cs2)c1OC` [compound 353], the IC50 in assay [2] (Table 2, read-out: MDM2 IC50) was in the range of 1 to 20 µM; in assay [2] (setting [5]), 1 to 20 µM; in assay [3] (Table 2, read-out: APC IC50), 1 to 20 µM; in assay [3] (setting [6]) it was 1 to 20 µM; in assay [4] it was 1 to 20 µM.
Turning to `O=C(c1ccc(CN(CCOc2ccccc2)c2nc(-c3ccc(Cl)c(Cl)c3)cs2)cc1)N1CCNCC1` [compound 360], the half-maximal inhibitory concentration (IC50) in assay [1] was 1 to 20 µM; in assay [2] (Table 2, read-out: MDM2 IC50), 1 to 20 µM; in assay [2] (setting [5]) it was less than 1 µM; in assay [3] (Table 2, read-out: APC IC50), 1 to 20 µM; in assay [3] (setting [6]), 1 to 20 µM; in assay [4], 1 to 20 µM.
